Data taken from US9000022B2 (Exelixis Patent Company LLC, priority 2005, dated 2015).

Test system: LXRα and/or LXRβ
Experiment: Co-transfection assay (LXRE luciferase reporter, CV-1 cells)
Type: cell-based, human
Details: tested as described in Example 33; IC50 or EC50 for LXRα and/or LXRβ, isoform not specified; read-out: activity (IC50 or EC50 for LXR)
Summary of the method: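 Luciferase signal measures LXR-RXR transcriptional activation in transiently transfected CV-1 cells carrying human LXRα or LXRβ, RXRα and a single-copy LXRE reporter. Cells were exposed to compound for 20 h at 37 °C with at most 1% DMSO, using 10 μM final for screening. Potency was derived from 4-parameter fits of 8-point, half-log dose curves averaged over ≥3 runs, and efficacy was expressed as % of a reference agonist.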

IC50 or EC50 (potency, activation or inhibition) [nM] | SMILES
1000 to 10000 | CCOC(=O)c1ccc(-c2ccc(-n3cc(C(C)(C)O)nc3-c3c(F)cccc3Cl)c(Cl)c2)cc1S(C)(=O)=O [Example 165, ethyl 3′-chloro-4′-(2-(2-chloro-6-fluorophenyl)-4-(2-hydroxypropan-2-yl)-1H-imidazol-1-yl)-3-(methyl-sulfonyl)biphenyl-4-carboxylate]
< 1000 | C/C(=N\O)c1cn(-c2ccc(-c3cccc(S(C)(=O)=O)c3)cc2)c(-c2c(Cl)cccc2Cl)n1 [Example 70, (E)-1-(2-(2,6-dichlorophenyl)-1-(3′-(methylsulfonyl)biphenyl-4-yl)-1H-imidazol-4-yl)ethanone oxime]
< 1000 | CCS(=O)(=O)c1cccc(-c2ccc(-n3cc(C(C)(C)O)nc3-c3cccc(Cl)c3Cl)c(C)c2)c1 [Example 180, 2-(2-(2,3-dichlorophenyl)-1-(3′-(ethylsulfonyl)-3-methylbiphenyl-4-yl)-1H-imidazol-4-yl)propan-2-ol]
< 1000 | CCS(=O)(=O)c1cccc(-c2cc(C)c(-n3cc(C(C)(C)O)nc3-c3ccccc3Cl)c(Cl)c2)c1 [Example 169, 2-(1-(3-chloro-3′-(ethylsulfonyl)-5-methylbiphenyl-4-yl)-2-(2-chlorophenyl)-1H-imidazol-4-yl)propan-2-ol]
< 1000 | NS(=O)(=O)c1cccc(-c2ccc(-n3cc(C(F)(F)F)nc3-c3ccccc3Cl)cc2)c1 [Example 360, 4′-[2-(2-chlorophenyl)-4-(trifluoro-methyl)-1H-imidazol-1-yl]biphenyl-3-sulfonamide]
< 1000 | Cc1cc(-c2cc(S(C)(=O)=O)ccc2Cl)ccc1-n1cc(C(C)(C)O)nc1Cc1cccc(Cl)c1Cl [Example 468, 2-(1-(2′-chloro-3-methyl-5′-(methylsulfonyl)biphenyl-4-yl)-2-(2,3-dichlorobenzyl)-1H-imidazol-4-yl)propan-2-ol]
< 1000 | CC(C)(O)c1cn(-c2ccc(-c3cccc(S(C)(=O)=O)c3)cc2)c(Cc2cc(Cl)ccc2F)n1 [Example 474, 2-(2-(5-chloro-2-fluorobenzyl)-1-(3′-(methylsulfonyl)biphenyl-4-yl)-1H-imidazol-4-yl)propan-2-ol]
< 1000 | CC(C)(O)c1cn(-c2ccc(-c3ccc(CO)c(S(C)(=O)=O)c3)cc2)c(-c2cccc(Cl)c2Cl)n1 [Example 98, 2-(2-(2,3-dichlorophenyl)-1-(4′-(hydroxymethyl)-3′-(methyl-sulfonyl)biphenyl-4-yl)-1H-imidazol-4-yl)propan-2-ol]
1000 to 10000 | NS(=O)(=O)c1cccc(-c2ccc(-c3[nH]c(C(F)(F)F)nc3-c3ccccc3Cl)cc2)c1 [Example 361, 4′-[4-(2-chlorophenyl)-2-(trifluoro-methyl)-1H-imidazol-5-yl]biphenyl-3-sulfonamide]
< 1000 | Cc1cccc(Cl)c1-c1nc(C(C)(C)O)cn1-c1ccc(-c2cccc(S(C)(=O)=O)c2)cc1F [Example 128, 2-(2-(2-chloro-6-methylphenyl)-1-(3-fluoro-3′-(methylsulfonyl)biphenyl-4-yl)-1H-imidazol-4-yl)propan-2-ol]
< 1000 | Cc1cc(-c2cccc(S(C)(=O)=O)c2)ccc1-n1cc(C(C)(C)O)nc1-c1ccccc1Cl [Example 418, 2-{2-(2-chlorophenyl)-1-[3-methyl-3′-(methylsulfonyl)biphenyl-4-yl]-1H-imidazol-4-yl}propan-2-ol]
1000 to 10000 | CCS(=O)(=O)c1cccc(-c2ccc(-n3cc(C(C)(C)O)nc3-c3c(C)cccc3Cl)cc2)c1 [Example 97, 2-(2-(2-chloro-6-methylphenyl)-1-(3′-(ethylsulfonyl)biphenyl-4-yl)-1H-imidazol-4-yl)propan-2-ol]
< 1000 | CC(C)(O)c1cn(-c2ccc(-c3ccc(CO)c(S(C)(=O)=O)c3)cc2F)c(-c2ccccc2C(F)(F)F)n1 [Example 121]
< 1000 | CCS(=O)(=O)c1cccc(-c2ccc(-n3cc(C(C)(C)O)nc3-c3cccc(Cl)c3C)c(F)c2)c1 [Example 119, 2-(2-(3-chloro-2-methylphenyl)-1-(3′-(ethylsulfonyl)-3-fluorobiphenyl-4-yl)-1H-imidazol-4-yl)propan-2-ol]
> 10000 | CC(C)(O)c1cn(-c2ccc(-c3cccc(S(C)(=O)=O)c3)cc2)c(-c2cnccc2C(F)(F)F)n1 [Example 37, 2-(1-(3′-(methylsulfonyl)biphenyl-4-yl)-2-(4-(trifluoromethyl)pyridin-3-yl)-1H-imidazol-4-yl)propan-2-ol]
< 1000 | Cc1cccc(Cl)c1-c1nc(C(C)(C)O)cn1-c1ccc(-c2cccc(S(C)(=O)=O)c2)cc1Cl [Example 156, 2-(1-(3-chloro-3′-(methyl-sulfonyl)biphenyl-4-yl)-2-(2-chloro-6-methylphenyl)-1H-imidazol-4-yl)propan-2-ol]

IC50 or EC50 (potency, activation or inhibition) [nM] | SMILES
< 1000 | Cc1cc(-c2cccc(S(C)(=O)=O)c2)ccc1-n1cc(C(C)(C)O)nc1-c1c(F)cccc1F [Example 193, 2-(2-(2,6-difluorophenyl)-1-(3-methyl-3′-(methylsulfonyl)biphenyl-4-yl)-1H-imidazol-4-yl)propan-2-ol]
< 1000 | CC(C)(O)c1cn(-c2ccc(-c3cccc(S(C)(=O)=O)c3)cc2F)c(Cc2cccc(Cl)c2Cl)n1 [Example 449, 2-(2-(2,3-dichlorobenzyl)-1-(3-fluoro-3′-(methylsulfonyl)biphenyl-4-yl)-1H-imidazol-4-yl)propan-2-ol]
< 1000 | CCS(=O)(=O)c1cccc(-c2ccc(-n3cc(C(C)(C)O)nc3Cc3cccc(Cl)c3Cl)c(F)c2)c1 [Example 450, 2-(2-(2,3-dichlorobenzyl)-1-(3′-(ethylsulfonyl)-3-fluorobiphenyl-4-yl)-1H-imidazol-4-yl)propan-2-ol]
1000 to 10000 | COc1ncccc1-c1ccc(-n2cc(C(C)(C)O)nc2-c2ccccc2C(F)(F)F)cc1 [Example 274, 2-(1-{4-[2-(methyloxy)pyridin-3-yl]phenyl}-2-[2-(trifluoro-methyl)phenyl]-1H-imidazol-4-yl)propan-2-ol]
< 1000 | CCS(=O)(=O)c1cccc(-c2ccc(-c3nc(C(C)(C)O)cn3-c3c(C)cccc3C(C)C)c(C)c2)c1 [Example 60, 2-(2-(3′-(ethylsulfonyl)-3-methyl-biphenyl-4-yl)-1-(2-isopropyl-6-methylphenyl)-1H-imidazol-4-yl)propan-2-ol]
< 1000 | CC(C)(O)c1cn(-c2ccc(-c3cccc(S(C)(=O)=O)c3)cc2)c(-c2ccccc2C(F)(F)F)n1 [Example 198, 2-{1-[3′-(methylsulfonyl)biphenyl-4-yl]-2-[2-(trifluoromethyl)phenyl]-1H-imidazol-4-yl}propan-2-ol]
< 1000 | Cc1cc(-c2ccc(CO)c(S(C)(=O)=O)c2)ccc1-n1cc(C(C)(C)O)nc1-c1cccc(F)c1Cl [Example 173, 2-(2-(2-chloro-3-fluorophenyl)-1-(4′-(hydroxymethyl)-3-methyl-3′-(methylsulfonyl)biphenyl-4-yl)-1H-imidazol-4-yl)propan-2-ol]
< 1000 | CC(C)(O)c1cn(-c2ccc(-c3ccc(CO)c(S(C)(=O)=O)c3)cc2Cl)c(-c2cccc3ccccc23)n1 [Example 32, 2-(1-(3-chloro-4′-(hydroxy-methyl)-3-(methylsulfonyl)biphenyl-4-yl)-2-(naphthalen-1-yl)-1H-imidazol-4-yl)propan-2-ol]
< 1000 | CCc1ccccc1-c1nc(C(C)(C)O)cn1-c1ccc(-c2cccc(S(C)(=O)=O)c2)cc1 [Example 93]
< 1000 | CCOC(=O)c1cn(-c2ccc(-c3cccc(S(C)(=O)=O)c3)cc2Cl)c(-c2c(Cl)cccc2Cl)n1 [Example 68, ethyl 1-(3-chloro-3′-(methyl-sulfonyl)biphenyl-4-yl)-2-(2,6-dichlorophenyl)-1H-imidazole-4-carboxylate]
< 1000 | CC(C)(O)c1cn(-c2ccc(-c3ccc(C(C)(C)O)c(S(C)(=O)=O)c3)cc2Cl)c(-c2ccccc2C(F)(F)F)n1 [Example 163, 2-(1-(3-chloro-4′-(2-hydroxypropan-2-yl)-3′-(methylsulfonyl)biphenyl-4-yl)-2-(2-(trifluoromethyl)phenyl)-1H-imidazol-4-yl)propan-2-ol]
< 1000 | CC(O)(c1cn(-c2ccc(-c3cccc(S(C)(=O)=O)c3)cc2)c(-c2ccccc2C(F)(F)F)n1)C(F)(F)F (stereo not shown) [Example 67]
< 1000 | CCS(=O)(=O)c1cccc(-c2ccc(-n3cc(C(C)(C)O)nc3-c3ccccc3C(C)C)c(C)c2)c1 [Example 196, 2-(1-(3′-(ethylsulfonyl)-3-methyl-biphenyl-4-yl)-2-(2-isopropyl-phenyl)-1H-imidazol-4-yl)propan-2-ol]
< 1000 | Cc1c(Cl)cccc1-c1nc(C(C)(C)O)cn1-c1ccc(-c2ccc(CO)c(S(C)(=O)=O)c2)cc1 [Example 101, 2-(2-(3-chloro-2-methylphenyl)-1-(4′-(hydroxymethyl)-3′-(methyl-sulfonyl)biphenyl-4-yl)-1H-imidazol-4-yl)propan-2-ol]
1000 to 10000 | CC(C)(O)c1cn(-c2ccc(-c3ccc(C(C)(C)O)c(S(C)(=O)=O)c3)cc2Cl)c(-c2c(F)cccc2Cl)n1 [Example 164, 2-(3′-chloro-4′-(2-(2-chloro-6-fluorophenyl)-4-(2-hydroxypropan-2-yl)-1H-imidazol-1-yl)-3-(methyl-sulfonyl)biphenyl-4-yl)propan-2-ol]
